Source: ChEMBL document CHEMBL4813957, “Antitubercular properties of thiazolidin-4-ones - A review” (Eur J Med Chem, 2021)
Converted amounts (≈) assume the structure as drawn.

tested on: Mycobacterium tuberculosis; assay: Antimycobacterial activity against Mycobacterium tuberculosis H37Rv by microplate alamar blue assay; format: functional; conditions: not given

Question: How did the MIC turn out when `O=C1/C(=C/c2ccccc2)SC(=S)N1Cc1nc2ccccc2[nH]1` was run?
Answer: 6.25 µg/mL (≈ 17.8 µM)

Question: With `O=C1CSC(c2ccc3c(c2)OCO3)N1c1nc(N2CCOCC2)n[nH]1` (stereo unspecified) as the compound, how does the MIC read?
Answer: ≤ 1 µg/mL

Question: For `Cc1ccc(/C=C2\SC(=S)N(Cc3nc4ccccc4[nH]3)C2=O)cc1`, which MIC is on record?
Answer: 6.25 µg/mL (≈ 17.1 µM)

Question: With `Cc1ccc(C2SC(C)C(=O)N2c2nc(N3CCN(C)CC3)n[nH]2)cc1` (stereo unspecified) as the compound, how does the MIC read?
Answer: ≤ 1 µg/mL

Question: How did the MIC turn out when `COc1ccc2oc(=O)cc(C3SCC(=O)N3c3ccc(Cl)cc3)c2c1` (stereo unspecified) was run?
Answer: 25 µg/mL (≈ 64.5 µM)

Question: `CN1CCN(c2n[nH]c(N3C(=O)CSC3c3ccc4c(c3)OCO4)n2)CC1` (stereo unspecified) was tested. Which MIC did it give?
Answer: ≤ 1 µg/mL

Question: `O=C1N/C(=N\c2ccc(S(=O)(=O)Nc3cc(Cl)c(Cl)cc3Cl)cc2)S/C1=C\c1ccc(O)cc1` was tested. Which MIC did it give?
Answer: 3.12 µg/mL (≈ 5.62 µM)

Question: For `COc1ccc(N2C(=O)CSC2c2cc(=O)oc3ccc(C)cc23)cc1` (stereo unspecified), which MIC is on record?
Answer: 25 µg/mL (≈ 68 µM)

Question: `O=C1/C(=C/c2ccc(F)cc2)SC(=S)N1Cc1nc2ccccc2[nH]1` was tested. Which MIC did it give?
Answer: 6.25 µg/mL (≈ 16.9 µM)

Question: For `O=C1/C(=C/c2ccc(O)cc2)SC(=S)N1Cc1nc2ccccc2[nH]1`, which MIC is on record?
Answer: 6.25 µg/mL (≈ 17 µM)

Question: How did the MIC turn out when `O=C(O)c1ccc(N2C(=O)CSC2c2ccc(F)cc2)cc1O` (stereo unspecified) was run?
Answer: 6.25 µg/mL (≈ 18.7 µM)

Question: `Cc1ccc2oc(=O)cc(C3SCC(=O)N3c3ccccc3)c2c1` (stereo unspecified) was tested. Which MIC did it give?
Answer: 25 µg/mL (≈ 74.1 µM)

Question: For `CN[C@@H]1[C@H](O[C@H]2[C@H](O[C@H]3[C@H](O)[C@@H](O)[C@H](N=C(N)N)[C@@H](O)[C@@H]3N=C(N)N)O[C@@H](C)[C@]2(O)C=O)O[C@@H](CO)[C@H](O)[C@H]1O` [STREPTOMYCIN], which MIC is on record?
Answer: 6.25 µg/mL (≈ 10.7 µM)

tested on: Mycobacterium tuberculosis; assay: Antimycobacterial activity against Mycobacterium tuberculosis H37Rv by filter paper disc diffusion method; format: functional; conditions: not given

Question: For `O=C1CSC(c2ccc(Cl)cc2)N1C(=O)NCCCn1ncc2ccc([N+](=O)[O-])cc21` (stereo unspecified), which MIC is on record?
Answer: 4.75 µg/mL (≈ 10.3 µM)

Question: For `O=C1CSC(c2cccc(Br)c2)N1C(=O)NCCCn1ncc2ccc([N+](=O)[O-])cc21` (stereo unspecified), which MIC is on record?
Answer: 4.5 µg/mL (≈ 8.92 µM)

Question: With `O=C(NCCCn1ncc2ccc([N+](=O)[O-])cc21)N1C(=O)/C(=C/c2ccc(Cl)cc2)SC1c1ccc(Cl)cc1` (stereo unspecified) as the compound, how does the MIC read?
Answer: 3.25 µg/mL (≈ 5.58 µM)

Question: `O=C1CSC(c2ccccc2[N+](=O)[O-])N1C(=O)NCCCn1ncc2ccc([N+](=O)[O-])cc21` (stereo unspecified) was tested. Which MIC did it give?
Answer: 3.75 µg/mL (≈ 7.97 µM)

Question: Which MIC does the source give for `O=C(NCCCn1ncc2ccc([N+](=O)[O-])cc21)N1C(=O)/C(=C/c2ccccc2[N+](=O)[O-])SC1c1ccccc1[N+](=O)[O-]` (stereo unspecified) here?
Answer: 2.25 µg/mL (≈ 3.73 µM)

Question: With `O=C(NCCCn1ncc2ccc([N+](=O)[O-])cc21)N1C(=O)/C(=C/c2ccccc2)SC1c1ccccc1` (stereo unspecified) as the compound, how does the MIC read?
Answer: 6.25 µg/mL (≈ 12.2 µM)

Question: With `O=C1CSC(c2ccccc2)N1C(=O)NCCCn1ncc2ccc([N+](=O)[O-])cc21` (stereo unspecified) as the compound, how does the MIC read?
Answer: 7.5 µg/mL (≈ 17.6 µM)

Question: Which MIC does the source give for `O=C(NCCCn1ncc2ccc([N+](=O)[O-])cc21)N1C(=O)/C(=C/c2cccc([N+](=O)[O-])c2)SC1c1cccc([N+](=O)[O-])c1` (stereo unspecified) here?
Answer: 1.75 µg/mL (≈ 2.9 µM)

Question: For `O=C(NCCCn1ncc2ccc([N+](=O)[O-])cc21)N1C(=O)/C(=C/c2ccccc2Cl)SC1c1ccccc1Cl` (stereo unspecified), which MIC is on record?
Answer: 2.25 µg/mL (≈ 3.86 µM)

Question: How did the MIC turn out when `O=C1CSC(c2ccc([N+](=O)[O-])cc2)N1C(=O)NCCCn1ncc2ccc([N+](=O)[O-])cc21` (stereo unspecified) was run?
Answer: 4.25 µg/mL (≈ 9.03 µM)

Question: How did the MIC turn out when `O=C1CSC(c2ccccc2Cl)N1C(=O)NCCCn1ncc2ccc([N+](=O)[O-])cc21` (stereo unspecified) was run?
Answer: 4.25 µg/mL (≈ 9.24 µM)

Question: With `O=C1CSC(c2cccc([N+](=O)[O-])c2)N1C(=O)NCCCn1ncc2ccc([N+](=O)[O-])cc21` (stereo unspecified) as the compound, how does the MIC read?
Answer: 4.25 µg/mL (≈ 9.03 µM)

Question: With `O=C(NCCCn1ncc2ccc([N+](=O)[O-])cc21)N1C(=O)/C(=C/c2cccc(Cl)c2)SC1c1cccc(Cl)c1` (stereo unspecified) as the compound, how does the MIC read?
Answer: 1.5 µg/mL (≈ 2.58 µM)

Question: Which MIC does the source give for `O=C1CSC(c2cccc(Cl)c2)N1C(=O)NCCCn1ncc2ccc([N+](=O)[O-])cc21` (stereo unspecified) here?
Answer: 4.5 µg/mL (≈ 9.78 µM)

Question: For `O=C1CSC(c2ccccc2Br)N1C(=O)NCCCn1ncc2ccc([N+](=O)[O-])cc21` (stereo unspecified), which MIC is on record?
Answer: 4.75 µg/mL (≈ 9.42 µM)

Question: With `O=C(NCCCn1ncc2ccc([N+](=O)[O-])cc21)N1C(=O)/C(=C/c2ccc([N+](=O)[O-])cc2)SC1c1ccc([N+](=O)[O-])cc1` (stereo unspecified) as the compound, how does the MIC read?
Answer: 1.5 µg/mL (≈ 2.49 µM)

Question: How did the MIC turn out when `O=C(NCCCn1ncc2ccc([N+](=O)[O-])cc21)N1C(=O)/C(=C/c2ccc(Br)cc2)SC1c1ccc(Br)cc1` (stereo unspecified) was run?
Answer: 2.5 µg/mL (≈ 3.72 µM)

Question: With `O=C(NCCCn1ncc2ccc([N+](=O)[O-])cc21)N1C(=O)/C(=C/c2cccc(Br)c2)SC1c1cccc(Br)c1` (stereo unspecified) as the compound, how does the MIC read?
Answer: 1.25 µg/mL (≈ 1.86 µM)

Question: `O=C(NCCCn1ncc2ccc([N+](=O)[O-])cc21)N1C(=O)/C(=C/c2ccccc2Br)SC1c1ccccc1Br` (stereo unspecified) was tested. Which MIC did it give?
Answer: 4.25 µg/mL (≈ 6.33 µM)

Question: For `O=C1CSC(c2ccc(Br)cc2)N1C(=O)NCCCn1ncc2ccc([N+](=O)[O-])cc21` (stereo unspecified), which MIC is on record?
Answer: 5.25 µg/mL (≈ 10.4 µM)

tested on: Mycobacterium tuberculosis; assay: Antimycobacterial activity against Mycobacterium tuberculosis H37Rv by Lowenstein-Jensen method relative to control; format: functional; conditions: not given

Question: How did the MIC turn out when `O=C(NCCCNc1ncc([N+](=O)[O-])s1)N1C(=O)/C(=C/c2ccccc2)SC1c1ccccc1` (stereo unspecified) was run?
Answer: 12.5 µg/mL (≈ 25.2 µM)

Question: `O=C(NCCCNc1ncc([N+](=O)[O-])s1)N1C(=O)/C(=C/c2cccc(Cl)c2)SC1c1cccc(Cl)c1` (stereo unspecified) was tested. Which MIC did it give?
Answer: 2.75 µg/mL (≈ 4.87 µM)

Question: `O=C(NCCCNc1ncc([N+](=O)[O-])s1)N1C(=O)/C(=C/c2ccccc2Cl)SC1c1ccccc1Cl` (stereo unspecified) was tested. Which MIC did it give?
Answer: 2.5 µg/mL (≈ 4.43 µM)

Question: `O=C(NCCCNc1ncc([N+](=O)[O-])s1)N1C(=O)/C(=C/c2ccc(Br)cc2)SC1c1ccc(Br)cc1` (stereo unspecified) was tested. Which MIC did it give?
Answer: 2.75 µg/mL (≈ 4.21 µM)

Question: How did the MIC turn out when `O=C(NCCCNc1ncc([N+](=O)[O-])s1)N1C(=O)/C(=C/c2ccccc2Br)SC1c1ccccc1Br` (stereo unspecified) was run?
Answer: 6.25 µg/mL (≈ 9.57 µM)

Question: With `O=C(NCCCNc1ncc([N+](=O)[O-])s1)N1C(=O)/C(=C/c2ccc(Cl)cc2)SC1c1ccc(Cl)cc1` (stereo unspecified) as the compound, how does the MIC read?
Answer: 2.5 µg/mL (≈ 4.43 µM)

Question: `O=C(NCCCNc1ncc([N+](=O)[O-])s1)N1C(=O)/C(=C/c2cccc(Br)c2)SC1c1cccc(Br)c1` (stereo unspecified) was tested. Which MIC did it give?
Answer: 2.75 µg/mL (≈ 4.21 µM)

tested on: Mycobacterium tuberculosis; assay: Antimycobacterial activity against Mycobacterium tuberculosis H37Rv incubated for 5 days by microplate alamar blue assay; format: functional; conditions: 120 h, time 5 day

Question: With `O=C1NC(=S)S/C1=C\c1cccc([N+](=O)[O-])c1` as the compound, how does the MIC read?
Answer: 0.05 µg/mL (≈ 0.188 µM)

Question: For `COc1ccc(/C=C2\SC(=S)NC2=O)cc1`, which MIC is on record?
Answer: 0.1 µg/mL (≈ 0.398 µM)

Question: With `O=C1CSC(c2c(-c3ccccc3)[nH]c3ccccc23)N1c1nc(-c2ccccc2)cs1` (stereo unspecified) as the compound, how does the MIC read?
Answer: 50 µg/mL (≈ 110 µM)

Question: With `O=C1NC(=S)S/C1=C\c1ccc[nH]1` as the compound, how does the MIC read?
Answer: 0.2 µg/mL (≈ 0.951 µM)

Question: How did the MIC turn out when `CN[C@@H]1[C@H](O[C@H]2[C@H](O[C@H]3[C@H](O)[C@@H](O)[C@H](N=C(N)N)[C@@H](O)[C@@H]3N=C(N)N)O[C@@H](C)[C@]2(O)C=O)O[C@@H](CO)[C@H](O)[C@H]1O` [STREPTOMYCIN] was run?
Answer: 6.25 µg/mL (≈ 10.7 µM)

tested on: Mycobacterium tuberculosis; assay: Antimycobacterial activity against Mycobacterium tuberculosis H37Rv ATCC […] by microplate alamar blue assay; format: functional; conditions: 168 h, time 7 day

Question: How did the MIC turn out when `CN[C@@H]1[C@H](O[C@H]2[C@H](O[C@H]3[C@H](O)[C@@H](O)[C@H](N=C(N)N)[C@@H](O)[C@@H]3N=C(N)N)O[C@@H](C)[C@]2(O)C=O)O[C@@H](CO)[C@H](O)[C@H]1O` [STREPTOMYCIN] was run?
Answer: 6.25 µg/mL (≈ 10.7 µM)
